Here are results for one compound from patent US20110183969A1, “ANTIFUNGAL COMBINATION THERAPY” (priority 2008, published 2011).

Holding throughout (type): cell-based
In experiment [1] the test system is Fusarium solani FS2. Description: 24 hr Fusarium solani MIC (RPMI medium, FS2). As to conditions: banded into grades, read-out: MIC. The procedure:
Between 1 and 5 mgs of compound were accurately weighed out into a sterile Eppendorf tube. The compound was dissolved in DMSO to give a solution containing 5 mg/mL. Tubes were stored at −20° C. until required.
On the day of testing thawed solutions were vortex mixed to ensure homogeneity. 30 μL of solution was removed and added to 570 μL of sterile water in a separate sterile Eppendorf The thoroughly mixed solution was used to prepare a series of doubling dilutions in water, in a deep well plate. […] replicate plates were prepared using a Minitrak by aspirating 20 μL from each well into eleven clear polystyrene 96 well plates.
Spores of Aspergillus spp. (Aspergillus fumigatus [two strains], Aspergillus terreus [two strains], Aspergillus niger and Aspergillus flavus) were harvested from cultures grown on Sabarauds agar for 5 days, and resuspended in PBS/Tween 80 to approx 1×10^7 cfu/mL. Other filamentous fungi (Absidia corymbifera, Fusarium solani, Rhizomucor, Scedosporium spp., Trichophyton spp.), were grown on Sabarauds agar for 2-10 days and spores/hyphae resuspended in PBS/Tween to give approx 1×10^7 cfu/mL. Candida species (Candida albicans, Candida glabrata, Candida krusei, Candida parapsilosis and Candida tropicalis) were grown on Sabarauds agar, cells were harvested from the agar using a sterile loop and resuspended in PBS/Tween 80 to approx 1×10^6 cfu/mL. Each organism suspension was diluted in RPMI medium, containing 2% glucose and 0.135 M MOPS buffer (pH 7.0) to 0.5−2×10^4 cfu/mL for Aspergillus spp. and other filamentous fungi and 0.5-2×10^3 cfu/mL for yeast. 80 μL of an organism suspension was added to each well of the plate containing drug dilutions.
This produced MIC plates with a drug range 50-0.05 mg/L and organism inocula of 1-2×10^4 cfu/mL for Aspergillus spp. and other filamentous fungi and 1-2×10^3 cfu/mL for yeasts. All plates were incubated for 24-48 hrs at 35° C. Growth was assessed by monitoring the optical density at 485 nm for each well. The MIC of a compound is the lowest drug concentration that inhibits growth of an organism by >80% compared with a drug free control. MICs are recorded as mg/L. Other growth media can be used for susceptibility testing, and the activity of the described compounds can also be assessed in a medium comprising 1% glucose, 1% ammonium chloride and 0.5% yeast extract (YAG medium). To perform MIC tests in this medium, dilutions of compounds are prepared in microtitre plates as described above. Fungal strains to be tested are grown and harvested in an identical manner to that described above, each organism suspension is then diluted in YAG medium to 0.5-2×10^4 cfu/mL for Aspergillus spp. and other filamentous fungi and 0.5-2×10^3 cfu/mL for yeast. 80 μL of an organism suspension was added to each well of the plate containing drug dilutions. This produced MIC plates with a drug range 50-0.05 mg/L and organism inocula of 1-2×10^4 cfu/mL for Aspergillus spp. and other filamentous fungi and 1-2×10^3 cfu/mL for yeasts. All plates were incubated for 24 hrs at 35° C. Growth was assessed by monitoring the optical density at 485 nm for each well. The MIC of a compound is the lowest drug concentration that inhibits growth of an organism by >70% compared with a drug free control. MICs are recorded as mg/L. In cases where the MIC of an organism is […] mg/L the MIC is repeated using a concentration range of 0.5-0.0005 mg/L. MIC tests in YAG medium have more clear-cut endpoints and have slightly lower MICs than those performed in RPMI medium.
24 hr Fusarium solani MIC Results (RPMI Medium, FS2): […]

Experiment [2] concerns Aspergillus fumigatus AF210. Description: Checkerboard titration (FIC) of an indolizine derivative with a second antifungal agent, RPMI medium. As to conditions: compound of Example 21 in combination with caspofungin, 48 hrs. The procedure: To determine the combined antifungal effect of indolizine derivatives of formula (I) and the second antifungal agent a checkerboard titration can be carried out. These are relatively simple tests to determine the combined effects of two compound. In the checkerboard titration doubling dilutions of compound A (e.g. an indolizine derivative of formula (I)) are prepared in every row across a microtitre plate and doubling dilutions of compound B (e.g. a second antifungal agent as described above) are prepared in every column down a microtitre plate. The activity of the two compounds in combination can be compared with the activity of each compound alone. In these experiments a narrow range of dilutions was tested for each compound around the MIC.
A stock solution of the compound of Example […] was prepared in DMSO. A stock solution of a second antifungal agent, in this case caspofungin, was 2 mg/ml.
The stock solution of the compound of Example 21 was diluted 1:2000 in water to 2.5 μg/ml. From this stock, aqueous solutions containing the following concentrations of the compound of Example 21 were prepared 0.9, 0.8, 0.7, 0.6, 0.5, 0.4, 0.3, 0.2, 0.1, 0.05, 0.025, 0.0125 μg/ml. […]
To determine the combined effect of the compounds the Fractional inhibitory concentration FIC was determined, where FIC is defined as: […]

The subject of experiment [3] is Aspergillus niger. The experiment can be described thus: MIC (YAG medium). As to conditions: Aspergillus niger; YAG medium; MIC banded into grades; read-out: MIC A. niger (grade). Put shortly:
(§1)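 MIC in mg/L, defined as >70% growth inhibition relative to drug-free control by optical density at 485 nm. Plates held 24 hrs at 35° C with Aspergillus inocula of 1-2×10^4 cfu/mL in YAG medium (1% glucose, 1% ammonium chloride, 0.5% yeast extract). Compounds tested at 50-0.05 mg/L, repeated at 0.5-0.0005 mg/L where needed.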

In experiment [4] the test system is Aspergillus fumigatus AF293. The experiment can be described thus: MIC (YAG medium). The conditions noted are these: Aspergillus fumigatus; YAG medium; MIC banded into grades; AF293; read-out: MIC A. fumigatus (grade). Put shortly:
as §1

The test system of experiment [5] is Aspergillus fumigatus AF210. The experiment can be described thus: MIC (YAG medium). As to conditions: Aspergillus fumigatus; YAG medium; MIC banded into grades; AF210; read-out: MIC A. fumigatus 210 (grade). Put shortly:
as §1

The test system of experiment [6] is Aspergillus terreus AT49. Description: MIC (YAG medium). As to conditions: Aspergillus terreus; YAG medium; MIC banded into grades; AT49; read-out: MIC A. terreus 49 (grade). Put shortly:
as §1

Experiment [7] relates to Aspergillus flavus. The experiment can be described thus: MIC (YAG medium). As to conditions: Aspergillus flavus; YAG medium; MIC banded into grades; read-out: MIC A. flavus (grade). Put shortly: as §1
For experiment [8], the system named is Aspergillus terreus AT4. Description: MIC (YAG medium). As to conditions: Aspergillus terreus; YAG medium; MIC banded into grades; AT4; read-out: MIC A. terreus (grade). Put shortly: as §1

The structures appear in SMILES notation. A value given as a limit tells only on which side of the number the result lay.

As to `Cc1cc(C)nc(N2CCN(c3ccc(NC(=O)C(=O)c4c(-c5ccccc5)cc5ccccn45)cc3)CC2)c1` [Example 21, N-{4-[4-(4,6-Dimethyl-pyridin-2-yl)-piperazin-1-yl]-phenyl}-2-oxo-2-(2-phenyl-indolizin-3-yl)-acetamide], the minimum inhibitory concentration (MIC) in experiment [1], in experiment [3], in experiment [4], in experiment [5], in experiment [6] and in experiment [7] was less than 1 µg/mL in each case. Further, the minimal inhibitory concentration (MIC) in experiment [8] was less than 1 µg/mL. In addition, the “FIC (fractional inhibitory concentration)” value in experiment [2] worked out at 0.66.

As usually defined, the MIC is the lowest concentration found to suppress growth.
